US20250205317A1, “METHODS AND COMPOSITIONS FOR THE TREATMENT OF STROKE” (University of Maryland, Baltimore, priority 2022, published 2025)
“Also recorded” adds a separate entry of the source.

Key:
[1] = Blood glucose at reperfusion and at euthanasia by glucometer (Example 4); format: in vivo, mouse; conditions: non-diabetic mice; 200 μg/kg IV; 5-7 mice/group
C57BL6 mice, MCAo/R = assay: MCAo/R (2/24 hours): infarct volume, hemispheric swelling, brain water, Garcia score (Example 4); format: in vivo, mouse
[2] = Serum glucose before and after canagliflozin administration (Example 3); format: in vivo, mouse; conditions: 0.07 mg/kg IV; compared to baseline / vehicle; 5 mice/group
Method: Drugs of the gliflozin class are used in patients with diabetes mellitus to lower serum glucose. To control for the possibility that the effect of canagliflozin was mediated by a reduction in serum glucose, we measured serum glucose at various times before and after canagliflozin (0.07 mg/kg IV) administration.

[3] = tested on: astrocytes (SGLT2 activated by glucose); assay: Astrocyte cell volume in ex vivo MCAo/R brain slices after glycemic challenge; format: cell-based, mouse; conditions: ipsilateral brain slices, MCAo/R 2/6 hours; step change 2 to 10 mM glucose; 5 μM
[4] = tested on: C57BL/6 mice, MCAo and reperfusion; assay: 2-hour MCAo followed by 24 hours reperfusion, infarct volume and reperfusion edema (Example 2); format: in vivo, mouse; conditions: 0.07 mg/kg IV at reperfusion
Method: A,B: Edema, measured as percent hemispheric swelling, vs. TTC infarct volume following 2 hour MCAo and 24 hour reperfusion; data are shown for C57BL/6 mice treated upon reperfusion with vehicle (empty circles) vs. the SGLT2 inhibitor, canagliflozin (filled squares; 0.07 mg/kg IV). Note the significant downward shift in the regression line, signifying reduced coupling between reperfusion edema and infarct volume.
The known variability in the brain damage caused by ischemia in C57BL/6 mice was leveraged (Knauss, et al., Frontiers in Neuroscience 2020) to quantify the relationship between reperfusion edema and infarct volume, under both control conditions and with SGLT2 inhibition. Mice underwent 2-hour MCAo followed by 24 hours reperfusion. At 2 hours, at the time of reperfusion, mice were randomly assigned to receive either vehicle control or canagliflozin (0.07 mg/kg IV). At 24 hours, the brains were evaluated for infarct volume using 2,3,5-triphenyltetrazolium chloride (TTC) (Khan, et al., Evaluation of an optimal temperature for brain storage in delayed 2, 3,5-triphenyltetrazolium chloride staining, J. Neurosci. Methods 2000, 98:43-47), and the hemisphere volume was quantified as a measure of reperfusion edema. McBride, et al., Correcting for Brain Swelling's Effects on Infarct Volume Calculation After Middle Cerebral Artery Occlusion in Rats, Transl. Stroke Res. 2015, 6:323-338. […]

[5] = tested on: rat model with type 1 diabetes mellitus and bilateral ischemia; conditions: 30-minute bilateral ischemia; cited from earlier work
[6] = tested on: patients with or without T2DM; conditions: long-term use, regardless of T2DM; cited from earlier work
[7] = 200 μg/kg IV at reperfusion, mean ± S.E.

Row | Compound | blood glucose at 24 hours [1] [mg/dL] | blood glucose at reperfusion [1] [mg/dL] | neurological function, Garcia score (median) (C57BL6 mice, MCAo/R; 200 μg/kg IV) | hemispheric swelling (C57BL6 mice, MCAo/R; [7]) [%] | infarct volume (C57BL6 mice, MCAo/R; [7]) [mm^3] | maximum hemispheric swelling (YM) from exponential fit (C57BL6 mice, MCAo/R; 200 μg/kg IV, fit to Eq. 1) [%] | ipsilateral brain water (C57BL6 mice, MCAo/R; 200 μg/kg IV, wet weight/dry weight method) | serum glucose [2] | glucose-induced changes in astrocyte volume [3] | infarct volume (TTC) [4] | reperfusion edema (percent hemispheric swelling) relative to infarct volume ([4]; shift in Deming regression p<0.0001) | blood glucose [5] | infarct volume [5] | progression of kidney disease [6] | risk of death from cardiovascular disease [6]
1 | Cc1ccc([C@@H]2O[C@H](CO)[C@@H](O)[C@H](O)[C@H]2O)cc1Cc1ccc(-c2ccc(F)cc2)s1 [canagliflozin] | 146 ± 10 | 175 ± 10 | 8 | 15.7±1.0 | 87.7±6.7 | 17.9 | 82.3±0.4 | remained euglycemic; also recorded: not affected | completely blocked | 63.1±8.0 % of hemisphere | reduced at all infarct volumes | – | – | – | –
2 | OC[C@H]1O[C@@H](c2ccc(Cl)c(Cc3ccc(O[C@H]4CCOC4)cc3)c2)[C@H](O)[C@@H](O)[C@@H]1O [empagliflozin] | – | – | – | – | – | – | – | – | – | – | – | reduced blood glucose | reduced blood glucose as well as infarct volume | slows the progression of kidney disease | reduces the risk of death from cardiovascular disease
